Earlier results, collected in patent US20240123021A1, “PHARMACEUTICAL COMPOSITIONS” (EXTROVIS AG, priority 2021, published 2024).
Square brackets hold non-standard residues; d marks the D form. Peptide text beside a SMILES is read from it. dPhe(4-Cl) = N[C@H](Cc1ccc(Cl)cc1)C(=O)O; d2Nal = N[C@H](Cc1ccc2ccccc2c1)C(=O)O; dCit = NC(=O)NCCC[C@@H](N)C(=O)O; d3Pal = N[C@H](Cc1cccnc1)C(=O)O

Details: according to Cetrotide EPAR scientific discussion

aggregation and gelling in solution (in solution)	Compound	stability (thermal, aqueous solution)
	CC(=O)N[C@H](Cc1ccc2ccccc2c1)C(=O)N[C@H](Cc1ccc(Cl)cc1)C(=O)N[C@H](Cc1cccnc1)C(=O)N[C@@H](CO)C(=O)N[C@@H](Cc1ccc(O)cc1)C(=O)N[C@H](CCCNC(N)=O)C(=O)N[C@@H](CC(C)C)C(=O)N[C@@H](CCCNC(=N)N)C(=O)N1CCC[C@H]1C(=O)N[C@H](C)C(N)=O [Cetrorelix acetate] (Ac-[d2Nal][dPhe(4-Cl)][d3Pal]SY[dCit]LRP[dA]-NH2)	thermally labile and unstable in aqueous solution
tends to aggregate and gel	Acetyl-D-3-(2′-naphtyl)-alanine-D-4-chlorophenylalanine-D-3-(3′-pyridyl)alanine-L-serine-L-tyrosine-D-citruline-L-leucine-L-arginine-L-proline-D-alanine-amide [Cetrorelix]	
